Experimental data as given in PubChem BioAssay AID1845201 (Molecular Pharmacology Branch, DTP, NCI, 2023).

Tested on: COR L88 complex tumor spheroid viability
Experiment: Anticancer human tumor COR L88 cell line growth inhibition;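 also: compound exposure lasted 7 days before viability readout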;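 as to viability, T/C: percent of DMSO vehicle-treated spheroids = 100%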
Settings: for IC50: curve of first compound; for viability, T/C: stronger effect = lower value
Outline: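 Complex tumor spheroids combined malignant cells with endothelial cells and mesenchymal stem cells. DNA-damaging drugs and DNA repair inhibitors were tested alone and in combination, at half-log dilutions down from clinical Cmax (top 10 microM if Cmax unknown), 0.25% DMSO final.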

`Cc1cc(C)c(CNC(=O)c2cc(-c3ccc(CN4CCOCC4)cc3)cc3c2cnn3C2CCCC2)c(=O)[nH]1` + COc1cc2c(cc1O)CCNC21CSC2c3c(OC(C)=O)c(C)c4c(c3C(COC1=O)N1C(O)C3Cc5cc(C)c(OC)c(O)c5C(C21)N3C)OCO4 was tested, and the IC50 (second compound 30 pM) was > 10 µM, the IC50 (second compound 94.9 pM) was > 10 µM and the IC50 (second compound 0.0003 µM) was 2.46 µM. The IC50 (second compound 0.000949 µM) was < 0.0316 µM, the IC50 (second compound 0.003 µM) was < 0.0316 µM and the viability, T/C (second compound 30 pM, first compound 0.0316 µM) was 107%. For the same compound, the viability, T/C (second compound 30 pM, first compound 0.1 µM) was 93.7%, the viability, T/C (second compound 30 pM, first compound 0.316 µM) was 102% and the viability, T/C (second compound 30 pM, first compound 1 µM) was 85.3%. For the same compound, the viability, T/C (second compound 30 pM, first compound 3.16 µM) was 73.8%, the viability, T/C (second compound 30 pM, first compound 10 µM) was 60.2% and the viability, T/C (second compound 94.9 pM, first compound 0.0316 µM) was 98.4%. It also gave a viability, T/C (second compound 94.9 pM, first compound 0.1 µM) of 107%, a viability, T/C (second compound 94.9 pM, first compound 0.316 µM) of 104% and a viability, T/C (second compound 94.9 pM, first compound 1 µM) of 86.9%. It also gave a viability, T/C (second compound 94.9 pM, first compound 3.16 µM) of 79.2%, a viability, T/C (second compound 94.9 pM, first compound 10 µM) of 51.1% and a viability, T/C (second compound 0.0003 µM, first compound 0.0316 µM) of 63.8%. It also gave a viability, T/C (second compound 0.0003 µM, first compound 0.1 µM) of 67.3%, a viability, T/C (second compound 0.0003 µM, first compound 0.316 µM) of 62.6% and a viability, T/C (second compound 0.0003 µM, first compound 1 µM) of 50.4%. The viability, T/C (second compound 0.0003 µM, first compound 3.16 µM) was 48.7%, the viability, T/C (second compound 0.0003 µM, first compound 10 µM) was 42.2% and the viability, T/C (second compound 0.000949 µM, first compound 0.0316 µM) was 49.3%. The viability, T/C (second compound 0.000949 µM, first compound 0.1 µM) was 43.8%, the viability, T/C (second compound 0.000949 µM, first compound 0.316 µM) was 39.7% and the viability, T/C (second compound 0.000949 µM, first compound 1 µM) was 43.1%. For the same compound, the viability, T/C (second compound 0.000949 µM, first compound 3.16 µM) was 35.2%, the viability, T/C (second compound 0.000949 µM, first compound 10 µM) was 10.1% and the viability, T/C (second compound 0.003 µM, first compound 0.0316 µM) was 1.12%. For the same compound, the viability, T/C (second compound 0.003 µM, first compound 0.1 µM) was 1.08%, the viability, T/C (second compound 0.003 µM, first compound 0.316 µM) was 0.94% and the viability, T/C (second compound 0.003 µM, first compound 1 µM) was 1.18%. The viability, T/C (second compound 0.003 µM, first compound 3.16 µM) was 0.93% and the viability, T/C (second compound 0.003 µM, first compound 10 µM) was 0.96%.

With `[2H]c1nc(C)nc([2H])c1-c1cc(NC[C@@H](C)c2cccc3c(C(=O)NC)ccnc23)ncn1` + Cn1nnc2c(C(N)=O)ncn2c1=O the IC50 (second compound 1 µM) was > 10 µM, the IC50 (second compound 3.16 µM) was > 10 µM and the IC50 (second compound 10 µM) was > 10 µM. For the same compound, the IC50 (second compound 31.6 µM) was > 10 µM, the IC50 (second compound 100 µM) was > 10 µM and the viability, T/C (second compound 1 µM, first compound 0.0316 µM) was 97.1%. For the same compound, the viability, T/C (second compound 1 µM, first compound 0.1 µM) was 98.5%, the viability, T/C (second compound 1 µM, first compound 0.316 µM) was 89.8% and the viability, T/C (second compound 1 µM, first compound 1 µM) was 93.3%. It also gave a viability, T/C (second compound 1 µM, first compound 3.16 µM) of 96%, a viability, T/C (second compound 1 µM, first compound 10 µM) of 97% and a viability, T/C (second compound 3.16 µM, first compound 0.0316 µM) of 94.5%. The viability, T/C (second compound 3.16 µM, first compound 0.1 µM) was 95.3%, the viability, T/C (second compound 3.16 µM, first compound 0.316 µM) was 105% and the viability, T/C (second compound 3.16 µM, first compound 1 µM) was 98.6%. For the same compound, the viability, T/C (second compound 3.16 µM, first compound 3.16 µM) was 102%, the viability, T/C (second compound 3.16 µM, first compound 10 µM) was 103% and the viability, T/C (second compound 10 µM, first compound 0.0316 µM) was 92.2%. For the same compound, the viability, T/C (second compound 10 µM, first compound 0.1 µM) was 93.3%, the viability, T/C (second compound 10 µM, first compound 0.316 µM) was 97.7% and the viability, T/C (second compound 10 µM, first compound 1 µM) was 88.7%. The viability, T/C (second compound 10 µM, first compound 3.16 µM) was 88.9%, the viability, T/C (second compound 10 µM, first compound 10 µM) was 98.7% and the viability, T/C (second compound 31.6 µM, first compound 0.0316 µM) was 80%. It also gave a viability, T/C (second compound 31.6 µM, first compound 0.1 µM) of 85.6%, a viability, T/C (second compound 31.6 µM, first compound 0.316 µM) of 75.9% and a viability, T/C (second compound 31.6 µM, first compound 1 µM) of 82.4%. For the same compound, the viability, T/C (second compound 31.6 µM, first compound 3.16 µM) was 82.2%, the viability, T/C (second compound 31.6 µM, first compound 10 µM) was 75.8% and the viability, T/C (second compound 100 µM, first compound 0.0316 µM) was 66%. It also gave a viability, T/C (second compound 100 µM, first compound 0.1 µM) of 66.6%, a viability, T/C (second compound 100 µM, first compound 0.316 µM) of 63.7% and a viability, T/C (second compound 100 µM, first compound 1 µM) of 69.5%. The viability, T/C (second compound 100 µM, first compound 3.16 µM) was 64.2% and the viability, T/C (second compound 100 µM, first compound 10 µM) was 65.8%.
